Reference: patent publication US20060069132A1, “Azolecarboxamide herbicides” (priority 2004, published 2006)

Assays:
[1] = system: prickly sida; test: Test E pre-/postemergence herbicide test; assay type: in vivo, Sida spinosa; details: Preemergence
From the text: (§1) Seeds of plant species selected from bipinnate beggarticks (Bidens bipinnata L.), hairy beggarticks (Bidens radiata Thuill.), bermudagrass (Cynodon dactylon (L.) Pers.), Surinam grass (Urochloa decumbens (Staph) R. D. Webster, previously named Brachiaria decumbens Stapf), large crabgrass (Digitaria sanguinalis (L.) Scop.), green foxtail (Setaria viridis (L.) P. Beauv.), goosegrass (Eleusine indica (L.) Gaertn.), johnsongrass (Sorghum halepense (L.) Pers.), kochia (Kochia scoparia (L.) Schrad.), pitted morningglory (Ipomoea lacunosa L.), purple nutsedge (Cyperus rotundus L.), common ragweed (Ambrosia elatior L.), mustard (Brassica nigra (L.) W. D. J. Koch), guineagrass (Panicum maximum Jacq.), dallisgrass (Paspalum dilatatum Poir.), barnyardgrass (Echinochloa crus-galli (L). P. Beauv.), southern sandbur (Cenchrus echinatus L.), common sowthistle (Sonchus oleraceous L.), prickly sida (Sida spinosa L.), Italian ryegrass (Lolium multiflorum Lam.), common purslane (Portulaca oleracea L.), broadleaf signalgrass (Brachiaria platyphylla (Griseb.) Nash), common groundsel (Senecio vulgaris L.), common chickweed (Stellaria media (L.) Vill/Cyr.), tropical spiderwort (Commelina benghalensis L.), annual bluegrass (Poa annua L.), downy bromegrass (Bromus tectorum L.), itchgrass (Rottboellia cochinchinensis (L.) L.f.), quackgrass (Elytrigia repens (L.) Nevski), Canada horseweed (Erigeron Canadensis L.), field bindweed (Convolvulus arvensis L.), spotted spurge (Euphorbia maculata L.), common mallow (Malva sylvestris (=s silvestris) L.), and Russian thistle (Salsola kali L. ssp. Ruthenica (Iljin) Soo) were planted and treated preemergence with test chemicals formulated in a non-phytotoxic solvent mixture which included a surfactant.
(§2) At the same time, plants selected from these weed species were treated with postemergence applications of some of the test chemicals formulated in the same manner. Plants ranged in height from 2 to 18 cm (1- to 4-leaf stage) for postemergence treatments. Treated plants and controls were maintained in a greenhouse for 12 to 14 days, after which time all species were compared to controls and visually evaluated. Plant response ratings, summarized in Table E, are based on a scale of 0 to 100 where 0 is no effect and 100 is complete control. A dash (-) response means no test result.

[2] = system: downy bromegrass; test: Test E pre-/postemergence herbicide test; assay type: in vivo, Bromus tectorum
From the text: as §1, §2

[3] = system: Surinam grass; test: Test E pre-/postemergence herbicide test; assay type: in vivo, Urochloa decumbens
From the text: as §1, §2

[4] = system: guineagrass; test: Test E pre-/postemergence herbicide test; assay type: in vivo, Panicum maximum
From the text: as §1, §2

[5] = system: bermudagrass; test: Test E pre-/postemergence herbicide test; assay type: in vivo, Cynodon dactylon
From the text: as §1, §2

[6] = system: green foxtail; test: Test E pre-/postemergence herbicide test; assay type: in vivo, Setaria viridis
From the text: as §1, §2

[7] = system: winter barley; test: Test C postemergence herbicide test; assay type: in vivo, Hordeum vulgare
Outline: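 After a postemergence application at 1 to 4 leaves (plants 2–18 cm high), or at 2 leaves for barnyardgrass in flooded paddy, plants stayed in the greenhouse for 12 to 14 days. Damage was then judged visually relative to control plants, with 100 indicating complete control.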

[8] = system: johnsongrass; test: Test E pre-/postemergence herbicide test; assay type: in vivo, Sorghum halepense
From the text: as §1, §2

[9] = system: quackgrass; test: Test E pre-/postemergence herbicide test; assay type: in vivo, Elytrigia repens
From the text: as §1, §2

[10] = system: broadleaf signalgrass; test: Test E pre-/postemergence herbicide test; assay type: in vivo, Brachiaria platyphylla
From the text: as §1, §2

[11] = system: Italian ryegrass; test: Test E pre-/postemergence herbicide test; assay type: in vivo, Lolium multiflorum
From the text: as §1, §2

[12] = system: common groundsel; test: Test E pre-/postemergence herbicide test; assay type: in vivo, Senecio vulgaris
From the text: as §1, §2

[13] = Preemergence, 125 g ai/ha, scale 0 to 100
[14] = Preemergence, 250 g ai/ha, scale 0 (no effect) to 100 (complete control)
[15] = Preemergence, 500 g ai/ha, scale 0 (no effect) to 100 (complete control)
[16] = Preemergence, 62 g ai/ha, scale 0 to 100
[17] = Postemergence, 500 g ai/ha, scale 0 to 100
[18] = Postemergence, 250 g ai/ha, scale 0 to 100
[19] = postemergence, 125 g ai/ha, scale 0 to 100
[20] = postemergence, 62 g ai/ha, scale 0 to 100

CCN1N=C(C(C)(C)C)CC1C(=O)Nc1cc(C(=O)N(C)C)ccc1F (centres unmarked) [Compound 268, N-[5-[(dimethylamino)carbonyl]-2-fluorophenyl]-3-(1,1-dimethylethyl)-1-ethyl-4,5-dihydro-1H-pyrazole-5-carboxamide]
Plant response rating, Prickly Sida ([1]; 62 g ai/ha, scale 0 to 100): 60 | Plant response rating, Prickly Sida ([1]; 125 g ai/ha, scale 0 to 100): 80 | Plant response rating, Prickly Sida ([1]; 250 g ai/ha, scale 0 (no effect) to 100 (complete control)): 100 | Plant response rating, Prickly Sida ([1]; 500 g ai/ha, scale 0 (no effect) to 100 (complete control)): 100 | Plant response rating, Bromegrass, Downy [2, 13]: 80 | Plant response rating, Bromegrass, Downy [2, 14]: 80 | Plant response rating, Bromegrass, Downy [2, 15]: 100 | Plant response rating, Surinam Grass [3, 13]: 90 | Plant response rating, Surinam Grass [3, 15]: 100 | Plant response rating, Guineagrass [4, 16]: 70 | Plant response rating, Guineagrass [4, 13]: 85 | Plant response rating, Guineagrass [4, 14]: 100 | Plant response rating, Guineagrass [4, 15]: 100 | Plant response rating, Bermudagrass [5, 16]: 60 | Plant response rating, Bermudagrass [5, 13]: 90 | Plant response rating, Bermudagrass [5, 14]: 95 | Plant response rating, Bermudagrass [5, 15]: 100 | Plant response rating, Foxtail, Green [6, 16]: 70 | Plant response rating, Foxtail, Green [6, 13]: 95 | Plant response rating, Foxtail, Green [6, 14]: 100 | Plant response rating, Foxtail, Green [6, 15]: 100 | Plant response rating, Barley, Winter ([7]; Postemergence, 125 g ai/ha, scale 0 to 100, 0 no effect, 100 complete control): 15 | Plant response rating, Barley, Winter ([7]; Postemergence, 250 g ai/ha, scale 0 to 100, 0 no effect, 100 complete control): 30 | Plant response rating, Barley, Winter ([7]; postemergence, 31 g ai/ha, scale 0 to 100): 0 | Plant response rating, Barley, Winter ([7]; postemergence, 62 g ai/ha, scale 0 to 100 (0 no effect, 100 complete control)): 0 | Plant response rating, Johnsongrass [8, 16]: 30 | Plant response rating, Johnsongrass [8, 13]: 50 | Plant response rating, Johnsongrass [8, 14]: 50 | Plant response rating, Johnsongrass [8, 15]: 80 | Plant response rating, Quackgrass [9, 16]: 40 | Plant response rating, Quackgrass [9, 13]: 85 | Plant response rating, Quackgrass [9, 14]: 95 | Plant response rating, Quackgrass [9, 15]: 95 | Plant response rating, Signalgrass [10, 16]: 20 | Plant response rating, Signalgrass [10, 13]: 60 | Plant response rating, Signalgrass [10, 14]: 80 | Plant response rating, Signalgrass [10, 15]: 80 | Plant response rating, Ryegrass, Italian [11, 16]: 95 | Plant response rating, Ryegrass, Italian [11, 13]: 95 | Plant response rating, Ryegrass, Italian [11, 14]: 95 | Plant response rating, Ryegrass, Italian [11, 15]: 95

CCn1nc(C(C)(C)C)cc1C(=O)Nc1cc(C(=O)N(C)C)ccn1 [Compound 156, 2-[[[3-(1,1-dimethylethyl)-1-ethyl-1H-pyrazol-5-yl]carbonyl]amino]-N,N-dimethyl-4-pyridinecarboxamide]
Plant response rating, Bromegrass, Downy [2, 17]: 100 | Plant response rating, Bromegrass, Downy [2, 18]: 100 | Plant response rating, Bromegrass, Downy [2, 16]: 60 | Plant response rating, Bromegrass, Downy [2, 13]: 80 | Plant response rating, Bromegrass, Downy [2, 14]: 100 | Plant response rating, Bromegrass, Downy [2, 15]: 100 | Plant response rating, Bromegrass, Downy [2, 19]: 100 | Plant response rating, Bromegrass, Downy [2, 20]: 90 | Plant response rating, Surinam Grass [3, 17]: 100 | Plant response rating, Surinam Grass [3, 18]: 98 | Plant response rating, Surinam Grass [3, 16]: 50 | Plant response rating, Surinam Grass [3, 13]: 75 | Plant response rating, Surinam Grass [3, 15]: 95 | Plant response rating, Surinam Grass [3, 19]: 95 | Plant response rating, Surinam Grass [3, 20]: 80 | Plant response rating, Guineagrass [4, 17]: 98 | Plant response rating, Guineagrass [4, 18]: 95 | Plant response rating, Guineagrass [4, 16]: 90 | Plant response rating, Guineagrass [4, 13]: 100 | Plant response rating, Guineagrass [4, 14]: 100 | Plant response rating, Guineagrass [4, 15]: 100 | Plant response rating, Guineagrass [4, 19]: 90 | Plant response rating, Guineagrass [4, 20]: 60 | Plant response rating, Bermudagrass [5, 17]: 98 | Plant response rating, Bermudagrass [5, 18]: 95 | Plant response rating, Bermudagrass [5, 16]: 95 | Plant response rating, Bermudagrass [5, 13]: 100 | Plant response rating, Bermudagrass [5, 14]: 100 | Plant response rating, Bermudagrass [5, 15]: 100 | Plant response rating, Bermudagrass [5, 19]: 95 | Plant response rating, Bermudagrass [5, 20]: 65 | Plant response rating, Foxtail, Green [6, 17]: 100 | Plant response rating, Foxtail, Green [6, 18]: 100 | Plant response rating, Foxtail, Green [6, 16]: 100 | Plant response rating, Foxtail, Green [6, 13]: 100 | Plant response rating, Foxtail, Green [6, 14]: 100 | Plant response rating, Foxtail, Green [6, 15]: 100 | Plant response rating, Foxtail, Green [6, 19]: 95 | Plant response rating, Foxtail, Green [6, 20]: 75 | Plant response rating, Johnsongrass [8, 17]: 100 | Plant response rating, Johnsongrass [8, 18]: 100 | Plant response rating, Johnsongrass [8, 16]: 95 | Plant response rating, Johnsongrass [8, 13]: 100 | Plant response rating, Johnsongrass [8, 14]: 100 | Plant response rating, Johnsongrass [8, 15]: 100 | Plant response rating, Johnsongrass [8, 19]: 95 | Plant response rating, Johnsongrass [8, 20]: 85 | Plant response rating, Quackgrass [9, 17]: 98 | Plant response rating, Quackgrass [9, 18]: 95 | Plant response rating, Quackgrass [9, 16]: 50 | Plant response rating, Quackgrass [9, 13]: 90 | Plant response rating, Quackgrass [9, 14]: 95 | Plant response rating, Quackgrass [9, 15]: 100 | Plant response rating, Quackgrass [9, 19]: 95 | Plant response rating, Quackgrass [9, 20]: 75 | Plant response rating, Groundsel [12, 17]: 100 | Plant response rating, Groundsel [12, 18]: 100 | Plant response rating, Groundsel [12, 16]: 100 | Plant response rating, Groundsel [12, 13]: 100 | Plant response rating, Groundsel [12, 14]: 100 | Plant response rating, Groundsel [12, 15]: 100 | Plant response rating, Groundsel [12, 19]: 100 | Plant response rating, Groundsel [12, 20]: 80 | Plant response rating, Signalgrass [10, 17]: 98 | Plant response rating, Signalgrass [10, 18]: 95 | Plant response rating, Signalgrass [10, 16]: 85 | Plant response rating, Signalgrass [10, 14]: 90 | Plant response rating, Signalgrass [10, 15]: 95 | Plant response rating, Signalgrass [10, 19]: 85 | Plant response rating, Signalgrass [10, 20]: 40 | Plant response rating, Ryegrass, Italian [11, 17]: 98 | Plant response rating, Ryegrass, Italian [11, 18]: 98 | Plant response rating, Ryegrass, Italian [11, 16]: 60 | Plant response rating, Ryegrass, Italian [11, 13]: 95 | Plant response rating, Ryegrass, Italian [11, 14]: 100 | Plant response rating, Ryegrass, Italian [11, 15]: 100 | Plant response rating, Ryegrass, Italian [11, 19]: 95 | Plant response rating, Ryegrass, Italian [11, 20]: 90
